Experimental data as given in PMC4867491 (Oncogene, 2015).
Where two headings read alike, the source gives them in different places.

Experiments:
Type in all cases: cell-based, human
HCT-116, DLD-1 and U2OS = conditions: read-out: IC50 (cell viability)
HeLa-C604Y = assay: Proliferation/colony formation assay; conditions: read-out: median IC50, three independent experiments
HCT-116-C604Y = assay: Proliferation/colony formation assay; conditions: read-out: median IC50, three independent experiments
HeLa-C604F = assay: Proliferation/colony formation assay; conditions: read-out: median IC50, three independent experiments
DLD-1-S611R = assay: Proliferation/colony formation assay; conditions: read-out: median IC50, three independent experiments
DLD-1 = assay: Proliferation/colony formation assay; conditions: read-out: median IC50; DLD-1 parental; three independent experiments
HCT-116-I531M = assay: Proliferation/colony formation assay; conditions: read-out: median IC50, three independent experiments
HCT-116 = assay: Proliferation/colony formation assay; conditions: read-out: median IC50; HCT-116 parental; three independent experiments
HeLa = assay: Proliferation/colony formation assay; conditions: read-out: median IC50; HeLa parental; three independent experiments
HeLa-I598F = assay: Proliferation/colony formation assay; conditions: read-out: median IC50, three independent experiments
[1] = three cancer cell lines HCT-116, DLD-1 and U2OS, Supplementary Figures 2a-c

Row | IC50 (HCT-116, DLD-1 and U2OS; [1]) [µM] | IC50 (HeLa-C604Y) [µM] | IC50 (HCT-116-C604Y) [µM] | IC50 (HeLa-C604F) [µM] | IC50 (DLD-1-S611R) [µM] | IC50 (HCT-116, DLD-1 and U2OS; Homo sapiens) [µM] | IC50 (HCT-116-I531M) [µM] | IC50 (HeLa-I598F) [µM] | Compound | IC50 (DLD-1) [µM] | IC50 (HCT-116) [µM] | IC50 (HeLa) [µM]
1 | 0.063 to 0.153 | > 2 | > 2 | > 2 | > 2 | – | – | – | Cc1cc(N2CCOCC2)ccc1Nc1nc(NC2CCCCC2)c2[nH]cnc2n1 [MPI-0479605] | – | – | –
2 | – | – | – | – | – | 0.063 to 0.153 | – | – | c1nc2nc(Nc3ccc(N4CCOCC4)cc3)nc(NC3CCCCC3)c2[nH]1 [Reversine, reversine] | – | – | –
3 | – | > 5 | > 5 | 2.74 | > 5 | – | 3.06 | 3.85 | AZ3146 | 0.719 | 0.56 | 1.33
4 | > 0.15 | > 2 | > 2 | – | – | – | – | – | CCc1cccc(CC)c1NC(=O)c1nn(C)c2c1CCc1cnc(Nc3ccc(C(=O)NC4CCN(C)CC4)cc3OC(F)(F)F)nc1-2 [NMS-P715] | – | – | –
